Reference: patent US20170306409A1, “CANCER PATIENT SELECTION FOR ADMINISTRATION OF WNT SIGNALING INHIBITORS USING RNF43 MUTATION STATUS” (NOVARTIS AG, priority 2012, published 2017)

What was measured:
Format in all cases: cell-based, human
[1] = tested on: RNF43 mutant cell lines; test: EdU proliferation assay; settings: 1 μM LGK974, 3 days
Procedure: Further, LGK974 induced the expression of differentiation marker MUC2, MUC5A/C in RNF43 mutant cells. LGK974 blocked EDU incorporation in RNF43 mutant cell lines, so Wnt inhibition in these cells leads to cell cycle arrest. LGK974-induced growth inhibition and cellular differentiation of RNF43 mutant cells are also obvious using Ki67 staining (anti-Ki67 (SP6) from Vector Laboratories, Burlingame, Calif., USA 94010) and Alcian Blue staining.
For the EdU proliferation assay, cells were plated in growth medium in 96 well plate at a density of 6000-12,000 cells per well, and treated with DMSO or 1 μM LGK974. After 3 days, the cells were treated with fresh growth medium containing 20 μM EdU, which was included in the Click-iT EdU Alexa Fluor 488 HCS assay kit (Invitrogen), and the plate was incubated for 2 hr at 37° C. in a humidified atmosphere containing 5% CO2. Cells were fixed with final 4% paraformaldehyde for 30 min, washed with PBS, permeabilized, and stained with 0.75% TritonX-100 and 50 μg/ml Hoechst in PBS for 30 min. After wash, the cells were proceeded EdU detection according to the instruction of Click-iT EdU assay kit. Triplet wells were performed for each condition.

[2] = tested on: PK-59; test: cell line proliferation assay (Cell Titer Glo)
Procedure: (§1) The sensitivity of pancreatic cells to LGK974 treatment were tested in a cellular proliferation assay in vitro. Twenty four human pancreatic cancer cell lines were treated with or without LGK974. Cellular proliferation data was generated in 384 well format. Cells were harvested and resuspended in their appropriate growth medium at a density of 1.5×10^4 cells per mL. […] Plates were then transferred to incubators on the ACP-1 system (37° C., 5% CO2) and cells were allowed to attach overnight. […] Following compound addition, plates were returned to the incubator for 120 hours. The assay plates were read with the addition of 10 μL of 1× Cell Titer Glo (Promega G7573) according to the manufacturer's instructions. Plates were then incubated at room temperature for ten minutes and read on the integrated Perkin Elmer Viewlux (2 second exposure, 2× bin, high sensitivity). The raw data was normalized using the DMSO control wells within each plate and the curve fitting for IC50 determination was performed. Cell growth was measured five days later with Cell Titer Glo (Promega). […] As shown in TABLE 4 and Example 4, all four cell lines harbor RNF43 loss-of-function (LOF) mutations

[3] = tested on: Panc 05.04; test: cell line proliferation assay (Cell Titer Glo)
Procedure: as §1

[4] = tested on: KP-1NL; test: cell line proliferation assay (Cell Titer Glo)
Procedure: as §1

[5] = tested on: PSN-1; test: cell line proliferation assay (Cell Titer Glo)
Procedure: as §1

[6] = tested on: Panc 10.05; test: cell line proliferation assay (Cell Titer Glo)
Procedure: as §1

[7] = tested on: HUP-T3; test: cell line proliferation assay (Cell Titer Glo)
Procedure: as §1

[8] = tested on: PK-1; test: cell line proliferation assay (Cell Titer Glo)
Procedure: as §1

[9] = tested on: HPAFII; test: cell line proliferation assay (Cell Titer Glo)
Procedure: as §1

[10] = tested on: PA-TU-8902; test: cell line proliferation assay (Cell Titer Glo)
Procedure: as §1

[11] = tested on: KP-1N; test: cell line proliferation assay (Cell Titer Glo)
Procedure: as §1

[12] = tested on: SW1990; test: cell line proliferation assay (Cell Titer Glo)
Procedure: as §1

[13] = tested on: SU8686; test: cell line proliferation assay (Cell Titer Glo)
Procedure: as §1

[14] = tested on: KP-3; test: cell line proliferation assay (Cell Titer Glo)
Procedure: as §1

[15] = tested on: Panc1; test: cell line proliferation assay (Cell Titer Glo)
Procedure: as §1

[16] = tested on: Panc 03.27; test: cell line proliferation assay (Cell Titer Glo)
Procedure: as §1

[17] = tested on: SUIT-2; test: cell line proliferation assay (Cell Titer Glo)
Procedure: as §1

[18] = tested on: STF Wnt reporter, YAPC-STF cells; test: SuperTOPFlash (STF) luciferase reporter assay; settings: absence of exogenous Wnt3a, LGK974 or IWP-2
Procedure: For the luciferase reporter assay, YAPC-STF reporter cells were transfected with siRNA and treated with Wnt3a conditioned medium or compound where applicable. STF luciferase assays were performed using BrightGlo Luciferase Assay kits (Promega) according to the manufacturer's instructions.
To construct pancreatic cell lines expressing STF reporter, HEK293 cells were grown in medium recommended by ATCC supplemented with 10% FBS. Retrovirus or lentivirus was produced from HEK293 cells by standard virus packaging procedure using FuGENE 6 (Roche) transfection reagent. Pancreatic cell lines expressing STF reporter, RNF43 constructs, or DOX-inducible β-catenin shRNA were generated by viral infection and drug selection.
Depletion of RNF43 induces Dvl phosphorylation and β-catenin stabilization. […] RNF43 siRNA-induced STF activity in the absence of exogenous Wnt3a is inhibited by LGK974 and a previously known Porcupine inhibitor IWP-2. Chen B et al. (2009) Nat. Chem. Biol. 5(2):100-7. See, FIG. 3(b), showing that this activity is dependent on the expression of endogenous Wnt proteins.

[19] = Homo sapiens, 120 hours, Cell Titer Glo, read-out: LGK974 IC50s in cell line proliferation assay

`Cc1cc(-c2ncc(CC(=O)Nc3ccc(-c4cnccn4)cn3)cc2C)ccn1` [LGK974, 2-[5-methyl-6-(2-methylpyridin-4-yl)pyridin-3-yl]-N-[5-(pyrazin-2-yl)pyridin-2-yl]acetamide] was tested, and the EDU incorporation [1] was “blocked”, the “Inhibition fold change (1-Treated/Control)” value [2] was 0.06 and the IC50 [2, 19] was over 2000 nM. The IC50 ([3]; Homo sapiens, Panc 05.04, 120 hours, Cell Titer Glo, read-out: LGK974 IC50s in cell line proliferation assay) was over 2000 nM, the “Inhibition fold change (1-Treated/Control)” value ([3]; Panc05.04) was 0.09 and the “Inhibition fold change (1-Treated/Control)” value [4] was 0.00. For the same compound, the IC50 [4, 19] was over 2000 nM, the “Inhibition fold change (1-Treated/Control)” value [5] was 0.06 and the IC50 ([5]; Homo sapiens, PSN1, 120 hours, Cell Titer Glo, read-out: LGK974 IC50s in cell line proliferation assay) was over 2000 nM. The IC50 ([6]; Homo sapiens, Panc1005, Panc 10.05, 120 hours, Cell Titer Glo, read-out: LGK974 IC50s in cell line proliferation assay) was over 2000 nM, the “Inhibition fold change (1-Treated/Control)” value ([6]; Panc10.05) was 0.02 and the “Inhibition fold change (1-Treated/Control)” value [7] was 0.07. For the same compound, the IC50 [7, 19] was over 2000 nM, the “Inhibition fold change (1-Treated/Control)” value [8] was 0.00 and the IC50 [8, 19] was over 2000 nM. For the same compound, the “Inhibition fold change (1-Treated/Control)” value [9] was 0.50, the IC50 ([9]; Homo sapiens, HPAF-II, 120 hours, Cell Titer Glo, read-out: LGK974 IC50s in cell line proliferation assay) was 33.6 nM and the “Inhibition fold change (1-Treated/Control)” value [10] was 0.02. The IC50 ([10]; Homo sapiens, PaTu 8902, 120 hours, Cell Titer Glo, read-out: LGK974 IC50s in cell line proliferation assay) was over 2000 nM, the “Inhibition fold change (1-Treated/Control)” value [11] was 0.01 and the IC50 [11, 19] was over 2000 nM. The “Inhibition fold change (1-Treated/Control)” value [12] was 0.03, the IC50 [12, 19] was over 2000 nM and the “Inhibition fold change (1-Treated/Control)” value [13] was 0.03. For the same compound, the IC50 ([13]; Homo sapiens, SU.86.86, 120 hours, Cell Titer Glo, read-out: LGK974 IC50s in cell line proliferation assay) was over 2000 nM, the “Inhibition fold change (1-Treated/Control)” value [14] was 0.02 and the IC50 [14, 19] was over 2000 nM. The “Inhibition fold change (1-Treated/Control)” value [15] was 0.00, the IC50 ([15]; Homo sapiens, PANC-1, 120 hours, Cell Titer Glo, read-out: LGK974 IC50s in cell line proliferation assay) was over 2000 nM and the IC50 ([16]; Homo sapiens, PANC-03-27, Panc 03.27, 120 hours, Cell Titer Glo, read-out: LGK974 IC50s in cell line proliferation assay) was over 2000 nM. For the same compound, the “Inhibition fold change (1-Treated/Control)” value ([16]; Panc03.27) was 0.06, the “Inhibition fold change (1-Treated/Control)” value [17] was 0.00 and the IC50 [17, 19] was over 2000 nM. For the same compound, the “RNF43 siRNA-induced STF activity” value [18] was “inhibited”.
